The source made the active and inactive calls. No cut-off for these calls is given here.
Assays:
HepG2 [1] = experiment: Cell cycle arrest in human HepG2 cells assessed as accumulation of cells at G2 phase at 1 nM incubated for 48 hrs by RNaseA/PI staining based flow cytometric analysis (reference value: 17.37%); type: functional
HepG2 [2] = experiment: Cell cycle arrest in human HepG2 cells assessed as accumulation of cells at S phase at 0.5 nM incubated for 48 hrs by RNaseA/PI staining based flow cytometric analysis (reference value: 23.81%); type: functional
HepG2 [3] = experiment: Induction of apoptosis in human HepG2 cells assessed as necrotic cells at 1 nM incubated for 48 hrs by Annexin V-FITC/PI staining based flow cytometric analysis (reference value: 0.443%); type: functional
[4] = Oral bioavailability in Sprague-Dawley rat at 20 mg/kg measured upto 12 hrs by UPLC-MS/ESI analysis; type: ADME, organism-based; conditions: in vivo
[5] = Tmax in Sprague-Dawley rat at 2 mg/kg, iv measured upto 12 hrs by UPLC-MS/ESI analysis; type: ADME, organism-based; conditions: in vivo
B16-F10 [6] = experiment: Antitumor immunity in C57 mouse implanted with mouse B16-F10 cells assessed as increase in CD3+ CD8+ cytotoxic T cells in tumor at 5 mg/kg, ip administered every day for 14 days by flow cytometric analysis (reference value: 0.340%); type: functional; conditions: time 14 day
Tubulin = experiment: Binding affinity to tubulin (unknown origin) assessed as affinity constant by SPR analysis; type: protein-complex assay, Homo sapiens
HepG2 [7] = experiment: Induction of apoptosis in human HepG2 cells assessed as late apoptotic cells at 1 nM incubated for 48 hrs by Annexin V-FITC/PI staining based flow cytometric analysis (reference value: 4.96 %); type: functional
[8] = Acute toxicity in C57 mouse assessed as survival rate at 64 mg/kg, po administered daily for 14 days relative to control; type: organism-based; conditions: in vivo, time 14 day, read-out: Activity
[9] = Toxicity in C57 mouse implanted with mouse B16-F10 cells assessed as pathological changes in kidney at 2.5 mg/kg, ip administered every day for 14 days in the presence of NP19 by H&E staining based microscopic analysis; type: organism-based; conditions: in vivo, 336 h, time 14 day
A2780/Taxol = experiment: Antiproliferative activity against paclitaxel resistant human A2780/Taxol cells assessed as inhibition of cell proliferation incubated for 48 hrs by MTT assay; type: functional, cell-based
[10] = AUC(0 to t) in Sprague-Dawley rat at 2 mg/kg, iv measured upto 12 hrs by UPLC-MS/ESI analysis; type: ADME, organism-based; set-up: time < 12 hrs, dose 2 mg/kg, route iv; conditions: in vivo
HepG2 [11] = experiment: Cell cycle arrest in human HepG2 cells assessed as accumulation of cells at G2 phase at 0.5 nM incubated for 48 hrs by RNaseA/PI staining based flow cytometric analysis (reference value: 17.37%); type: functional
HepG2 [12] = experiment: Induction of apoptosis in human HepG2 cells assessed as late apoptotic cells at 0.5 nM incubated for 48 hrs by Annexin V-FITC/PI staining based flow cytometric analysis (reference value: 4.96 %); type: functional
HepG2 [13] = experiment: Cell cycle arrest in human HepG2 cells assessed as accumulation of cells at S phase at 1 nM incubated for 48 hrs by RNaseA/PI staining based flow cytometric analysis (reference value: 23.81%); type: functional
[14] = Resistance index, ratio of IC50 for antiproliferative activity against paclitaxel resistant human A2780/Taxol cells to IC50 for antiproliferative activity against parental human A2780S cells; type: functional
HepG2 [15] = experiment: Cell cycle arrest in human HepG2 cells assessed as accumulation of cells at G2 phase at 5 nM incubated for 48 hrs by RNaseA/PI staining based flow cytometric analysis (reference value: 17.37%); type: functional
HeLa = experiment: Antiproliferative activity against human HeLa cells assessed as inhibition of cell proliferation incubated for 48 hrs by MTT assay; type: functional, cell-based
MCF7 = experiment: Antiproliferative activity against human MCF7 cells assessed as inhibition of cell proliferation incubated for 48 hrs by MTT assay; type: functional, cell-based; conditions: MCF7, 48 h
HepG2 [16] = experiment: Induction of apoptosis in human HepG2 cells assessed as early apoptotic cells at 1 nM incubated for 48 hrs by Annexin V-FITC/PI staining based flow cytometric analysis (reference value: 7.01 %); type: functional
[17] = Toxicity in C57 mouse implanted with mouse B16-F10 cells assessed as pathological changes in heart at 2.5 mg/kg, ip administered every day for 14 days in the presence of NP19 by H&E staining based microscopic analysis; type: organism-based; conditions: in vivo, 336 h, time 14 day
[18] = AUC(0 to infinity) in Sprague-Dawley rat at 2 mg/kg, iv measured upto 12 hrs by UPLC-MS/ESI analysis; type: ADME, organism-based; set-up: dose 2 mg/kg, time < 12 hrs, route iv; conditions: in vivo
HepG2 [19] = experiment: Induction of apoptosis in human HepG2 cells assessed as early apoptotic cells at 0.5 nM incubated for 48 hrs by Annexin V-FITC/PI staining based flow cytometric analysis (reference value: 7.01 %); type: functional
HepG2 [20] = experiment: Cell cycle arrest in human HepG2 cells assessed as accumulation of cells at G1 phase at 0.5 nM incubated for 48 hrs by RNaseA/PI staining based flow cytometric analysis (reference value: 56.11%); type: functional
B16-F10 [21] = experiment: Antiproliferative activity against mouse B16-F10 cells assessed as inhibition of cell proliferation incubated for 48 hrs by MTT assay; type: functional, cell-based; conditions: B16-F10, 48 h
[22] = Tmax in Sprague-Dawley rat at 20 mg/kg, po measured upto 12 hrs by UPLC-MS/ESI analysis; type: ADME, organism-based; conditions: in vivo
[23] = Apparent volume of distribution in Sprague-Dawley rat at 2 mg/kg, iv measured upto 12 hrs by UPLC-MS/ESI analysis; type: ADME, organism-based; conditions: in vivo, read-out: Vz
[24] = Cmax in Sprague-Dawley rat at 2 mg/kg, iv measured upto 12 hrs by UPLC-MS/ESI analysis; type: ADME, organism-based; set-up: dose 2 mg/kg, time < 12 hrs, route iv; conditions: in vivo
[25] = Toxicity in C57 mouse implanted with mouse B16-F10 cells assessed as pathological changes in liver at 2.5 mg/kg, ip administered every day for 14 days in the presence of NP19 by H&E staining based microscopic analysis; type: organism-based; conditions: in vivo, 336 h, time 14 day
[26] = Apparent volume of distribution in Sprague-Dawley rat at 20 mg/kg, po measured upto 12 hrs by UPLC-MS/ESI analysis; type: ADME, organism-based; conditions: in vivo
B16-F10 [27] = experiment: Antitumor activity against mouse B16-F10 cells implanted in C57 mouse assessed as reduction in tumor volume at 2.5 mg/kg, ip administered every day for 14 days in the presence of NP19; type: functional, organism-based; conditions: time 14.0 day
[28] = Cmax in Sprague-Dawley rat at 20 mg/kg, po measured upto 12 hrs by UPLC-MS/ESI analysis; type: ADME, organism-based; set-up: time < 12 hrs, dose 20 mg/kg, route po; conditions: in vivo
B16-F10 [29] = experiment: Antitumor immunity in C57 mouse implanted with mouse B16-F10 cells assessed as increase in CD3+ CD8+ cytotoxic T cells in tumor at 2.5 mg/kg, ip administered every day for 14 days in the presence of NP19 by flow cytometric analysis (reference value: 0.340%); type: functional; conditions: time 14 day
HepG2 [30] = experiment: Induction of apoptosis in human HepG2 cells assessed as early apoptotic cells at 5 nM incubated for 48 hrs by Annexin V-FITC/PI staining based flow cytometric analysis (reference value: 7.01 %); type: functional

COc1cc(-c2nccc3[nH]c(-c4cccc5c4ccn5C)nc23)cc(OC)c1OC gave an Activity (HepG2 [1]) of 36.46%, an Activity (HepG2 [2]) of 27.34% and an Activity (HepG2 [3]) of 0.189%. It also gave a bioavailability [4] of 11%, a Tmax [5] of 4.98 min and an Activity (B16-F10 [6]) of 0.923%. The Kd (Tubulin) was 18.3 µM, the Activity (HepG2 [7]) was 8.87% and the survival at 336 h [8] was 60%. For the same molecule, the Activity [9] was “Non-Toxic”, the IC50 (A2780/Taxol) was 5.1 nM and the AUC(0-t) at 12 h [10] was 3060 ng·h/mL. It also gave an Activity (HepG2 [11]) of 20.73%, an Activity (HepG2 [12]) of 6.41% and an Activity (HepG2 [13]) of 20.35%. For the same molecule, the “Ratio IC50” value [14] was 3.2, the Activity (HepG2 [15]) was 55.89% and the IC50 (HeLa) was 9 nM. For the same molecule, the IC50 (MCF7) was 6 nM, the Activity (HepG2 [16]) was 31.3% and the Activity [17] was “Non-Toxic”. For the same molecule, the AUC(0-inf) [18] was 3080 ng·h/mL, the Activity (HepG2 [19]) was 8.59% and the Activity (HepG2 [20]) was 49.61%. The IC50 (B16-F10 [21]) was 2 nM, the Tmax [22] was 55.2 min and the Vd [23] was 1.08 L/kg. For the same molecule, the Cmax [24] was 1730 ng/mL, the Activity [25] was “Non-Toxic” and the Vz [26] was 16.84 L/kg. The Activity (B16-F10 [27]) was “Active”, the Cmax [28] was 879 ng/mL and the Activity (B16-F10 [29]) was 3.34%. It also gave an Activity (HepG2 [30]) of 83.1%.
